Laboratory results as given in patent publication US9145391B2, “Bipyridylaminopyridines as Syk inhibitors” (Merck Sharp & Dohme Corp., priority 2011, dated 2015).

These compounds were tested against recombinant human GST-Syk (Homo sapiens (Human), UniProt P43405) (assay: Homogeneous Time-Resolved Fluorescence (HTRF) assay for the recombinant human Syk enzyme). Settings: recombinant human GST-Syk 5 pM, ATP 25 μM, read-out: rhSyk IC50.
Assay type: biochemical
Procedure, shortened: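 HTRF read-out of phosphorylation of a biotinylated Syk-site peptide (250 nM final) by a GST-tagged human Syk fusion. Reaction initiated with ATP at 25 μM final plus 5 mM magnesium final. Compound potency taken from inhibition of human Syk activity.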

| SMILES | IC50 [nM] |
| --- | --- |
| Cc1cc(Nc2cc(C(F)(F)F)ccn2)nc(-c2ccc(F)nc2)c1 [Example 1-1] | 38 |
| Cc1ccnc(Nc2cc(C)cc(-c3ccc(F)nc3)n2)c1 [Example 1-2] | 111 |
| Cc1ccnc(Nc2cc(C)cc(-c3ccnc(F)c3)n2)c1 [Example 1-3] | 135 |
| Cc1cc(Nc2cc(C(F)(F)F)ccn2)nc(-c2ccnc(F)c2)c1 [Example 1-4] | 87 |
| Cc1cc(Nc2cc(C(F)(F)F)ccn2)nc(-c2ccc(C3(O)CCN(C(=O)OC(C)(C)C)CC3)nc2)c1 [Example 1-5] | 406 |
| CCOC(=O)C1CCC(O)(c2ccc(-c3cc(C)cc(Nc4cc(C(F)(F)F)ccn4)n3)cn2)CC1 (centres unmarked) [Example 1-10] | 45 |
| CCOC(=O)C1CCC(O)(c2ccc(-c3cc(C)cc(Nc4cc(C(F)(F)F)ccn4)n3)cn2)CC1 (centres unmarked) [Example 1-11] | 47 |
| COC(=O)C1CCC(C(=O)c2ccc(-c3cc(C)cc(Nc4cc(C(F)(F)F)ccn4)n3)cn2)CC1 (centres unmarked) [Example 1-12] | 643 |
| Cc1cc(Nc2cc(C(F)F)ccn2)nc(-c2ccc(C3(O)CCC3)nc2)c1 [Example 1-13] | 5 |
| Cc1cc(Nc2cc(C(F)F)ccn2)nc(-c2ccc(C(C)(C)O)nc2)c1 [Example 1-14] | 8 |
| CCCCOC(=O)C1CCC(C(C)(O)c2ccc(-c3cc(C)cc(Nc4cc(C(F)(F)F)ccn4)n3)cn2)CC1 (centres unmarked) [Example 1-15] | 19 |
| CCC(O)(c1ccc(-c2cc(C)cc(Nc3cc(C(F)(F)F)ccn3)n2)cn1)C1CCC(C(=O)OC)CC1 (centres unmarked) [Example 1-16] | 12 |
| COC(=O)C1CCC(C(O)(c2ccc(-c3cc(C)cc(Nc4cc(C(F)(F)F)ccn4)n3)cn2)C2CC2)CC1 (centres unmarked) [Example 1-17] | 16 |
| Cc1cc(Nc2cc(C(F)(F)F)ccn2)nc(-c2ccc(C3(O)CCC(C(=O)O)CC3)nc2)c1 (centres unmarked) [Example 1-18] | 1 |
| Cc1cc(Nc2cc(C(F)(F)F)ccn2)nc(-c2ccc(C3(O)CCC(C(=O)O)CC3)nc2)c1 (centres unmarked) [Example 1-19] | 3 |
| Cc1cc(Nc2cc(C(F)(F)F)ccn2)nc(-c2ccc(C3(O)CCCc4cc(C(=O)O)ccc43)nc2)c1 (centres unmarked) [Example 1-21] | 2 |
| Cc1cc(Nc2cc(C(F)(F)F)ccn2)nc(-c2ccc(C3(O)CCCc4cc(C(=O)O)ccc43)nc2)c1 (centres unmarked) [Example 1-22] | 1 |
| Cc1cc(Nc2cc(C(F)(F)F)ccn2)nc(-c2ccc(C3(O)CCC(C(=O)O)C(C)(C)C3)nc2)c1 (centres unmarked) [Example 1-23] | 29 |
| Cc1cc(Nc2cc(C(F)(F)F)ccn2)nc(-c2ccc(C3(O)CCC(C(=O)O)C(C)(C)C3)nc2)c1 (centres unmarked) [Example 1-24] | 8 |
| Cc1cc(Nc2cc(C(F)(F)F)ccn2)nc(-c2ccc(C3(O)CCC(C(=O)O)C(C)(C)C3)nc2)c1 (centres unmarked) [Example 1-25] | 1 |
| Cc1cc(Nc2cc(C(F)(F)F)ccn2)nc(-c2ccc(C3(O)CCC(C(=O)O)C(C)(C)C3)nc2)c1 (centres unmarked) [Example 1-26] | 1 |
| CCC(O)(c1ccc(-c2cc(C)cc(Nc3cc(C(F)(F)F)ccn3)n2)cn1)C1CCC(C(=O)O)CC1 (centres unmarked) [Example 1-30] | < 0.5 |
| Cc1cc(Nc2cc(C(F)(F)F)ccn2)nc(-c2ccc(C(O)(C3CCC(C(=O)O)CC3)C3CC3)nc2)c1 (centres unmarked) [Example 1-31] | < 0.5 |
| Cc1cc(Nc2cc(C3CC3)ccn2)nc(-c2ccc(C(C)(O)C3CCC(C(=O)O)CC3)nc2)c1 (centres unmarked) [Example 1-32] | 1 |
| CC(O)(c1ccc(-c2cc(C3CC3)cc(Nc3cc(C(F)F)ccn3)n2)cn1)C1CCC(C(=O)O)CC1 (centres unmarked) [Example 1-33] | < 0.5 |
| CC(C)(O)c1cc(Nc2cc(C(F)F)ccn2)nc(-c2ccc(C(C)(O)C3CCC(C(=O)O)CC3)nc2)c1 (centres unmarked) [Example 1-34] | 1 |
| Cc1cc(Nc2cc(C(F)F)ccn2)nc(-c2ccc(C(C)(O)C3CCC(C(=O)O)C(C)C3)nc2)c1 (centres unmarked) [Example 1-35] | < 0.5 |

Other lines, results leading:

| IC50 [nM] | SMILES |
| --- | --- |
| 4.3 | CC(=O)OC(C)OC(=O)[C@H]1CC[C@H](C(C)(O)c2ccc(-c3cc(C)cc(Nc4cc(C(F)F)ccn4)n3)cn2)CC1 (single isomer, unassigned) [Example 21-2, 1-(acetyloxy)ethyl trans-4-[(1R or 1S)-1-(6-{[4-(difluoromethyl)pyridin-2-yl]amino}-4-methyl-2,3′-bipyridin-6′-yl)-1-hydroxyethyl] cyclohexanecarboxylate] |
| 1.5 | CC(=O)OC(C)OC(=O)[C@H]1CC[C@H](C(C)(O)c2ccc(-c3cc(C)cc(Nc4cc(C(F)F)ccn4)n3)cn2)CC1 (single isomer, unassigned) [Example 21-3, 1-(acetyloxy)ethyl trans-4-[(1R or 1S)-1-(6-{[4-(difluoromethyl)pyridin-2-yl]amino}-4-methyl-2,3′-bipyridin-6′-yl)-1-hydroxyethyl] cyclohexanecarboxylate] |
| 23 | Cc1cc(Nc2cc(C(F)F)ccn2)nc(-c2ccc(C(C)(O)[C@H]3CC[C@H](C(=O)OC(C)OC(=O)C(C)C)CC3)nc2)c1 (single isomer, unassigned) [Example 21-4, 1-[(2-methylpropanoyl)oxy]ethyl trans-4-[(1R or 1S)-1-(6-{[4-(difluoromethyl)pyridin-2-yl]amino}-4-methyl-2,3′-bipyridin-6′-yl)-1-hydroxyethyl] cyclohexanecarboxylate] |
| 33 | Cc1cc(Nc2cc(C(F)F)ccn2)nc(-c2ccc(C(C)(O)[C@H]3CC[C@H](C(=O)OC(C)OC(=O)C(C)C)CC3)nc2)c1 (single isomer, unassigned) [Example 21-5, 1-[(2-methylpropanoyl)oxy]ethyl trans-4-[(1R or 1S)-1-(6-{[4-(difluoromethyl)pyridin-2-yl]amino}-4-methyl-2,3′-bipyridin-6′-yl)-1-hydroxyethyl] cyclohexanecarboxylate] |
| 15 | CC(=O)OCCOC(=O)[C@H]1CC[C@H](C(C)(O)c2ccc(-c3cc(C)cc(Nc4cc(C(F)F)ccn4)n3)cn2)CC1 (single isomer, unassigned) [Example 21-6, 2-(acetyloxy)ethyl trans-4-[(1R or 1S)-1-(6-{[4-(difluoromethyl)pyridin-2-yl]amino}-4-methyl-2,3′-bipyridin-6′-yl)-1-hydroxyethyl] cyclohexanecarboxylate] |
| 1 | Cc1cc(Nc2cc(C(F)F)ccn2)nc(-c2ccc(C(C)(O)[C@H]3CC[C@H](CO)CC3)nc2)c1 (single isomer, unassigned) [Example 23, (1R or 1S)-1-(6-{[4-(difluoromethyl)pyridin-2-yl]amino}-4-methyl-2,3′-bipyridin-6′-yl)-1-[trans-4-(hydroxymethyl)cyclohexyl]ethanol] |
| 4 | Nc1cc(Nc2cc(C(F)(F)F)ccn2)nc(-c2ccc(NC3CCNC3=O)nc2)c1 (centres unmarked) [Example 2, 3-[(4-Amino-6-{[4-(trifluoromethyl)pyridin-2-yl]amino}-2,3′-bipyridin-6′-yl)amino]pyrrolidin-2-one] |
| 271 | Cc1cc(Nc2cc(C(F)(F)F)ccn2)nc(-c2ccc(N3CCCC(NC(=O)OC(C)(C)C)C3)nc2)c1 (centres unmarked) [Example 2-2] |
| 248 | Cc1cc(Nc2cc(C(F)(F)F)ccn2)nc(-c2ccc(N3CCC(NC(=O)OC(C)(C)C)C3)nc2)c1 (centres unmarked) [Example 2-3] |
| 91 | Cc1cc(Nc2cc(C(F)(F)F)ccn2)nc(-c2ccc(NC3CCN(C(=O)OC(C)(C)C)CC3)nc2)c1 [Example 2-4] |
| 4 | Cc1cc(Nc2cc(C(F)(F)F)ccn2)nc(-c2ccc(NC3CCNC3=O)nc2)c1 (centres unmarked) [Example 2-9] |
| 3 | Cc1cc(Nc2cc(C(F)(F)F)ccn2)nc(-c2ccc(N3CCCC3C(=O)O)nc2)c1 (centres unmarked) [Example 2-10] |
| 3 | Cc1cc(Nc2cc(C(F)(F)F)ccn2)nc(-c2ccc(N3CCC3C(=O)O)nc2)c1 (centres unmarked) [Example 2-11] |
| 6 | Cc1cc(Nc2cc(C(F)(F)F)ccn2)nc(-c2ccc(NC3CCNC3=O)nc2)c1 (centres unmarked) [Example 2-16] |
| 39 | Cc1cc(Nc2cc(C(F)(F)F)ccn2)nc(-c2ccc(N3CCCC3C(=O)O)nc2)c1 (centres unmarked) [Example 2-17] |
| 33 | Cc1cc(Nc2cc(C(F)(F)F)ccn2)nc(-c2ccc(N3CCC3C(=O)O)nc2)c1 (centres unmarked) [Example 2-18] |
| 19 | Cc1cc(Nc2cc(C(F)(F)F)ccn2)nc(-c2ccc(NC(C)(C)C(=O)O)nc2)c1 [Example 2-19] |
| 2 | Cc1cc(Nc2cc(C(F)(F)F)ccn2)nc(-c2ccc(N3CCN(C(=O)N4CCCC(C(=O)O)C4)CC3)nc2)c1 (centres unmarked) [Example 2-20] |
| 2 | Cc1cc(Nc2cc(C(F)(F)F)ccn2)nc(-c2ccc(N3CC(C4CCCC(C(=O)O)C4)C3)nc2)c1 (centres unmarked) [Example 2-21] |
| 3 | Cc1cc(Nc2cc(C(F)(F)F)ccn2)nc(-c2ccc(N3CC(C4CCC(C(=O)O)CC4)C3)nc2)c1 (centres unmarked) [Example 2-22] |
| 3 | Cc1cc(Nc2cc(C(F)(F)F)ccn2)nc(-c2ccc(NCC3CCC(C(=O)O)CC3)nc2)c1 (centres unmarked) [Example 2-23] |
| 1 | Cc1cc(Nc2cc(C(F)(F)F)ccn2)nc(-c2ccc(NC3CCC(C(=O)O)CC3)nc2)c1 (centres unmarked) [Example 2-24] |
| 7 | Cc1cc(Nc2cc(C(F)(F)F)ccn2)nc(-c2ccc(NC3CCC(C(=O)O)CC3)nc2)c1 (centres unmarked) [Example 2-25] |
| 3 | Cc1cc(Nc2cc(C(F)(F)F)ccn2)nc(-c2ccc(N3CCC(C(=O)N4CCC(C(=O)O)CC4)CC3)nc2)c1 [Example 2-26] |
| 2 | Cc1cc(Nc2cc(C(F)(F)F)ccn2)nc(-c2ccc(N3CCCC(C(=O)N4CCCC(C(=O)O)C4)C3)nc2)c1 (centres unmarked) [Example 2-27] |
| 3 | Cc1cc(Nc2cc(C(F)(F)F)ccn2)nc(-c2ccc(N3CCCC(C(=O)N4CCCC(C(=O)O)C4)C3)nc2)c1 (centres unmarked) [Example 2-28] |
| 6 | Cc1cc(Nc2cc(C(F)(F)F)ccn2)nc(-c2ccc(N3CCC4CCC(C(=O)O)CC4C3)nc2)c1 (centres unmarked) [Example 2-29] |
| 14 | Cc1cc(Nc2cc(C(F)(F)F)ccn2)nc(-c2ccc(N3CCOCC3)nc2)c1 [Example 2-30] |
| 3 | Cc1cc(Nc2cc(C(F)(F)F)ccn2)nc(-c2ccc(OC[C@H]3CC[C@H](C(=O)O)CC3)nc2)c1 [Example 3, trans-4-{[(4-Methyl-6-{[4-(trifluoromethyl)pyridin-2-yl]amino}-2,3′-bipyridin-6′-yl)oxy]methyl}cyclohexanecarboxylic acid] |
